Entries after “also recorded” stand apart in the source; their conditions may differ.
How the values were obtained:
[1] = tested on: autosomal dominant polycystic kidney disease (ADPKD); conditions: cited from earlier work
MDCK cells = assay: Live-cell impedance measurements of MDCK cells after compound treatment (water transport, doming); type: cell-based, canine
Experimental: (§1) Impedance measurements were performed with two different electric field configurations named vertical field (VF) and lateral field (LF) and at four different frequencies of 250 Hz, 1 kHz, 4 kHz, and 16 kHz, as shown in FIG. 27A. In total, 9 impedance parameter maps were measured per field configuration, including magnitude and phase for the 4 frequencies and a Direct Current (DC, 0 Hz) magnitude. […] Connections were observed between biological information and measurements at frequency magnitudes, phases, and DC.
(§2) To perform field-based impedance measurements across multiple frequencies, a voltage stimulation was applied which is the summation of the four different frequency signals and return currents were measured using a transimpedance amplifier (TIA) configuration with a feedback gain of 18 MΩ. The magnitudes of the AC voltage signals were scaled to create similar output amplitudes that were measured by the TIA configuration (0.2 V/250 Hz, 0.08 V/1 kHz, 0.04 V/4 kHz, and 0.02 V/16 kHz for lateral field, 0.25 V/250 Hz, 0.1 V/1 kHz, 0.04 V/4 kHz, and 0.025 V/16 kHz for vertical field). Six of the 96 wells were scanned at a time taking 2.5 s, resulting in a total scan time across the well plate of 40 s. A fast Fourier transform (FFT) was used to extract the magnitude and phase of each of the four frequencies and the DC component—9 impedance parameter maps for each field configuration.
(§3) A reference impedance map was used to determine the location of cells: a threshold was set above the electrodes' default impedance in solution, and the presence of a cell above an electrode then increased the impedance beyond the threshold for detection. Typically, the VF 4 kHz map provided the best contrast for generating the cell mask. For magnitude, phase, and DC, the median value of electrodes with cells was then calculated. An additional epoxy mask was calculated in a similar manner to remove electrodes which had spillover epoxy from well plate attachment. Before each cell plating, a reference measurement was taken in empty culture media to calculate the epoxy mask.
(§4) Transient features such as motility and migration were generated from impedance videos through a root-mean-square (RMS) calculation. The difference between two unmasked image frames was taken (the epoxy mask was still used if applicable), then the RMS calculation was performed across the pixels of the difference map. To normalize for changes in magnitude, the calculated RMS was then divided by the median value of the cell-masked well distribution. Typically, the VF 4 kHz map was used for the RMS signal generation.
(§5) Compound treatments were performed using a half media exchange. To prepare for compound addition, half the media from each well was removed. […]

Caco-2 cells [2] = assay: Caco-2 impedance barrier function measurements (341 compound screen, dose response, Amonafide analogues); type: cell-based, human; conditions: dose response 1 nM to 10 μM
ZO-1 in Caco-2 cells = assay: Immunofluorescence imaging and quantification of ZO-1 in Caco-2 cells; type: cell-based, human; conditions: 48 hours post-compound treatment
Experimental: For immunofluorescence imaging, cells were grown on coverslips and then either allowed to grow for 48 hours or treated with relevant compounds for 48 hours. Cells were then fixed in 4% paraformaldehyde, washed, permeabilized with 0.5% Triton-X 100 in PBS, and then subjected to antibody incubation. Antibodies used were anti-E-Cadherin (obtained from Cell Signaling Technology, Danvers, MA, as cat no: 3195T), anti-ZO1 (obtained from Thermo Fisher, Waltham, MA, as cat no:617300) and anti-Occludin (obtained from Thermo Fisher as cat no: 331500). Alexa Fluor 488 and 568 secondary antibodies were used. Coverslips were mounted in Vectashield® antifade mounting medium with DAPI.
Imaging was performed using a Yokogawa Wi spinning disk confocal on an inverted Nikon Ti fluorescence microscope equipped with Hamamatsu ORCA-Fusion BT CMOS camera (6.5 μm^2 photodiode), Lumencor SOLA fluorescence light source, and Nikon LUN-F XL solid state laser combiner: 405 nm (80 mW), 445 nm (35 mW), 488 nm (80 mW), 514 nm (50 mW), 561 nm (65 mW), and 640 nm (60 mW). For imaging, the widefield modality of the microscope was typically used, and all imaging was done using a 20× objective. Acquisition was performed using consistent exposure across samples to enable intensity quantification. Images were processed using the open source image processing software FIJI.
Quantification of ZO-1 in the cell-membrane and nucleus was performed by manually defining ROIs for the cell membrane and nucleus. Mean integrated intensity was calculated within the ROI. All quantification was performed in raw, unprocessed images.

Caco-2 cells [3] = assay: Caco-2 impedance barrier function measurements (341 compound screen, dose response, Amonafide analogues); type: cell-based, human; conditions: for change in Caco-2 barrier function at 12 hours post-compound application: 10 μM, versus control; for barrier increase (maximum VF 250 Hz) over the 48-hours: screen at 10 μM
Experimental: To execute and analyze the screens, cells were seeded on five CMOS 96-wellplates, allowed to grow for 24 hours for A549 or 48 hours for Caco-2, compounds were added at 10 μM in 1% DMSO via a half media swap using an OpenTrons liquid handling robot. Effects were measured for 48 hours, with impedance measurements taken every 15 minutes. The many field/frequency and calculated parameters were then normalized to a timepoint one hour before compound addition. The array of normalized parameters at timepoints logarithmically spaced from compound addition to +48 hours were then used for a principal component analysis (PCA) and unbiased clustering using the top 20 PCA dimensions.
Compound treatments were performed using a half media exchange. To prepare for compound addition, half the media from each well was removed. Compounds were prepared at 2× concentration in cell culture media, and the 2× compound solution was then added to the wells. Care was taken to keep DMSO concentration below 1%, compound dilutions were performed with a constant DMSO concentration. Compound in media was temperature- and CO2-equilibrated prior to addition. All compounds including the 341 compound library were obtained from Selleckchem Chemicals (Houston, TX). For the screening analysis, the pathway and target information provided by Selleckchem Chemicals was curated together.
In the second approach, rather than comparing 5 measurement parameters, all field and calculation parameters were used to perform an unbiased phenotypic profiling with a larger compound library. A total of 341 compounds were chosen as a sub-set of an FDA approved library and applied on two cell types, A549 and Caco-2. At least two compounds per target were chosen for conserved phenotype effects. For the screens, compounds were added 24 or 48 hours post cell seeding and measured up to 48 hours after the compound addition. Time normalization, a principal component analysis (PCA), and unbiased clustering were sequentially performed on the high-dimensional data readouts (VF & LF magnitudes, phase, and DC). This unbiased approach ensured compound separation based solely on functional and morphological effects of the cells, with no bias of the targets/pathways of the compounds.

many cell types = assay: Vertical field (VF) impedance across many cell types; type: cell-based
Experimental: as §1, §2

MDA-MB-231 cells = assay: Live-cell impedance measurements of MDA-MB-231 cells after compound treatment; type: cell-based, human
Experimental: as §1, §2, §3, §4, §5

SMILES: COc1cc(Nc2ncc3c(n2)-c2ccc(Cl)cc2C(c2c(F)cccc2OC)=NC3)ccc1C(=O)O [Alisertib]
- ADPKD in animal models [1]: exacerbate
- cell surface attachment (MDCK cells): sharp decrease
- transepithelial water transport (MDCK cells): accelerated
- domes (doming) (MDCK cells; Alisertib 1 μM, Bosutinib 10 μM): increased doming; also recorded: Domes were only observed
- water transport detachment (LF 16 kHz) with respect to the control (MDCK cells; mean±s.d. for 3 wells): accelerated

SMILES: CN(C)CCN1C(=O)c2cccc3cc(N)cc(c23)C1=O [Amonafide]
- time course of barrier increase (Caco-2 cells [2]): rapid increase in barrier; also recorded: rapid and sustained increase
- ZO-1 levels and distribution (membrane, nucleus) (ZO-1 in Caco-2 cells): increase in membrane ZO-1 levels, with additional nuclear localization; also recorded: Significant increases in ZO-1 in the membrane and nucleus
- change in Caco-2 barrier function at 12 hours post-compound application (Caco-2 cells [3]): rapid increase in barrier
- barrier increase (maximum VF 250 Hz) over the 48-hours (Caco-2 cells [3]): largest barrier increase; also recorded: highest observed increase in barrier

SMILES: COc1ccc(C[C@H]2NC[C@H](O)[C@H]2OC(C)=O)cc1 [Anisomycin]
- VF (vertical field impedance) (many cell types): increases in VF

SMILES: Cc1cc(C2CCCCC2)n(O)c(=O)c1 [Ciclopirox]
- time course of barrier increase (Caco-2 cells [2]): more gradual increase in barrier
- ZO-1 levels and distribution (membrane, nucleus) (ZO-1 in Caco-2 cells): did not affect ZO-1 distribution or expression
- barrier increase (maximum VF 250 Hz) over the 48-hours (Caco-2 cells [3]): largest barrier increase; also recorded: increased the barrier; also recorded: highest observed increase in barrier

SMILES: C=C1[C@@H](C)[C@H]2[C@H](Cc3ccccc3)NC(=O)[C@]23[C@H](OC(C)=O)/C=C/[C@@](C)(O)C(=O)[C@@H](C)C/C=C/[C@H]3[C@@H]1O [Cytochalasin D]
- attachment (MDA-MB-231 cells): decreased
- concentration giving immediate cell size decrease (MDA-MB-231 cells): ≥ 0.2 µM
- concentration giving subsequent cell size increase (MDA-MB-231 cells): ≥ 1 µM
- motility (RMS) (MDA-MB-231 cells): decrease

SMILES: CCN(CC)CCN1C(=O)c2cccc3cc(N)cc(c23)C1=O [NSC 308848]
- ZO-1 levels and distribution (membrane, nucleus) (ZO-1 in Caco-2 cells): Significant increases in ZO-1 in the membrane and nucleus
- change in Caco-2 barrier function at 12 hours post-compound application (Caco-2 cells [3]): rapid increase in barrier

SMILES: CN(C)CCN1C(=O)c2cccc3cc(NC(N)=O)cc(c23)C1=O [UNBS5162]
- ZO-1 levels and distribution (membrane, nucleus) (ZO-1 in Caco-2 cells): did not affect ZO-1 levels or distribution
- change in Caco-2 barrier function at 12 hours post-compound application (Caco-2 cells [3]): did not affect the barrier

Reference: patent US20240385168A1, “SEMICONDUCTOR-BASED MEASUREMENT DEVICES” (CytoTronics, priority 2023, published 2024)
